We go through four compounds from patent publication US12296023B2, “Chemically and photochemically initiated cell membrane blebbing to induce cell vesicle production, modifications thereof, and uses thereof” (The Regents of the University of California, priority 2018, dated 2025).

One assay deals with stock AAV. The experiment in a line: Transduction of NEM-treated stock AAV. Format: cell-based, AAV2.
Another assay relates to AAV isolate from lysate. The experiment in a line: Transduction of NEM-treated AAV from producer cell lysate. It counts as cell-based, AAV2.
The subject of assay [1] is HeLa cells. Kind of assay: N-ethylmaleimide induced cell vesicle production time course. It counts as cell-based, human. To be noted: 2 mM NEM in 1×DPBS; 1 h, 3 h, 5 h, 8 h, 24 h. The procedure: Protocol for N-ethylmaleimide induced cell vesicle production: HeLa cells were plated at 70% confluency (6×10^6 cells/100 mm cell culture plate) and incubated for 4 h at 37° C. and 5% CO2. Media was removed and cells were washed three times with 10 mL of 1×DPBS. […] Cells were imaged using a standard inverted light microscope and DPBS solution containing ICVs were collected, isolated, and analyzed by dynamic light scattering (DLS) for size.
Protocol for nano- and microscale induce cell vesicle isolation: Cells and debris were removed by centrifugation at 1200 rpm for 5.5 min, repeated three times, each time collecting supernatant into a clean tube. Then, mICVs were isolated from the supernatant by centrifugation at 16,000×g for 10 min. After the first spin, supernatant was collected for nICV isolation while micro ICV pellets were washed with 1×DPBS. This was repeated two additional times, discarding supernatant and washing the mICV pellet with 1×DPBS. nICVs were isolated using 100 kDa Amicon® ultrafiltration at 3300×g for 15 min, repeated three times with 1×DPBS washes. Final mICVs and nICVs collected were suspended in 100 uL 1×DPBS and then characterized.
(§1) Characterization of mICVs and nICVs: mICVs and nICVs were imaged using a bright field microscope and inverted light microscope. The sizing of produced ICVs were measured by using dynamic light scattering (DLS). […]

The next assay concerns E.G7-OVA cells. Kind of assay: Tumor challenge study after vaccination. It counts as in vivo, C57BL/6 mice. The following applies: for tumor growth: s.c. vaccination plus booster, 300,000 E.G7-OVA cells s.c.; for survival: tumor challenge. The protocol: Tumor challenge study. 12 wk.-old C57BL/6 mice (Charles River Laboratories, Wilmington, MA) were vaccinated by s.c. injection with DPBS, OVA protein, SIINFEKL peptide, SIINFEKL-presenting BDMCs, or SIINFEKL-presenting BMDC mICVs. With the exception of the control (DPBS) group, each group received vaccinations that were equivalent to a dosage of 100 μL of 50 μM SIINFEKL as quantified by CPRG assay. Vaccinations were given twice 14 days apart. 7 days after the second injection, mice were injected s.c. with 300,000 E.G7-OVA cells in the right flank. Tumor growth was monitored by measuring the tumor size with calipers every 48 h.
Mice received a single vaccination followed by a booster vaccination two weeks later). Seven days after completion of a vaccination schedule. mice were challenged with E.G7-OVA cells and tumor growth was assessed over four weeks. FIG. 72 provides images from Day 30 of the tumor challenge with mice by vaccine category. […] The foregoing tumor challenge result indicates promise for use of antigenic ICVs as effective cancer vaccines.

Assay [2] relates to HeLa cells. Kind of assay: AlPcS2A photoinitiated induced cell vesicle production (670 nm laser). It counts as cell-based, human. To be noted: 1 ug/mL for 24 h then light, vs light alone. The procedure:
Protocol for Photoinitiated induced cell vesicle production: HeLa cells were plated at 70% confluency (6×10^6 cells/100 mm cell culture plate) and incubated for 4 h at 37° C. and 5% CO2. Cells were then imaged to confirm adherence to the plate and, in the dark, media was changed to media containing 1 ug/mL of the photosensitizer aluminum disulfonated phthalocyanine (AlPcS2A) (10 mL of photosensitizer media per 100 mm each plate). Plates were wrapped in tinfoil and allowed to incubate for 24 h at 37° C. and 5% CO2. In the dark, the photosensitive media was removed and cells were washed three times with 10 mL of 1×DPBS. Then, 6 mL of 1×DPBS was added to each 100 mm plate and the plates were subjected to a 670 nm laser for varying time doses (10 min, 5 min, 2.5 min, 1.25 min). Cells were imaged using a standard inverted light microscope, and the DPBS solution containing ICVs was collected. 6 mL of fresh 1×DPBS was added to each 100 mm plate and the plates were incubated at 37° C. and 5% CO2 for 18 h to investigate ICV formation effects over time. Cells were imaged using a standard inverted light microscope and the DPBS solution containing ICVs was collected. […]
as §1

As to `CCN1C(=O)C=CC1=O` [NEM, N-ethylmaleimide], the “stock AAV transduction efficiency” value with stock AAV (NEM incubation 10 minutes) is “reducing the transduction efficiency”. The “stock AAV transduction” value in the assay with stock AAV (NEM incubation 2 hours) was “almost no transduction”. Also, the “transduction of AAV isolate from lysate” value is listed as “about half the transduction” with AAV isolate from lysate (NEM exposure 8 hours vs 0-minute timepoint) and “only a minimal drop in transduction” in the assay on AAV isolate from lysate (NEM exposure up to 4 hours). Besides, the “formation of nICVs” value in the assay with HeLa cells [1] is reported as “induced the formation of nICVs at each time point”.
Turning to OVA: OVA protein vaccination control, in the assay with E.G7-OVA cells, the tumor growth entry is on record as “rapidly developed tumors” and the survival entry was “died prior to day 35”.
In the case of “SIINFEKL [antigen peptide vaccination control]”, in the assay on E.G7-OVA cells, the tumor growth entry is “rapidly developed tumors” and the survival result is “died prior to day 35”.
For the compound “aluminum disulfonated phthalocyanine [AlPcS2A]”, in the assay on HeLa cells [2], the “yield of nICVs and mICVs” value was “greatly increased the yield of nICVs and mICVs”.
